SMILES strings stand for the structures. The source made the active and inactive calls. How the calls were made is not given here.

In this series the test system is CCRIS mutagenicity, Ames/micronucleus/aberration tests. Kind of series: CCRIS mutagenicity studies.
Where [1] appears, read: Test System: AMES SALMONELLA TYPHIMURIUM, Strain/Indicator: TA98, Metabolic Activation: HAMSTER, LIVER, S-9, AROCLOR 1254 (10%), Method: PREINCUBATION
Where [2] appears, read: Test System: AMES SALMONELLA TYPHIMURIUM, Strain/Indicator: TA98, Metabolic Activation: NONE, Method: PREINCUBATION
The mark [3] stands for this setting: Test System: AMES SALMONELLA TYPHIMURIUM, Strain/Indicator: TA98, Metabolic Activation: NONE, Method: STANDARD PLATE.
The mark [4] stands for this setting: Test System: AMES SALMONELLA TYPHIMURIUM, Strain/Indicator: TA98, Metabolic Activation: RAT, LIVER, S-9, AROCLOR 1254 (10%), Method: PREINCUBATION
Setting [5] is: Test System: AMES SALMONELLA TYPHIMURIUM, Strain/Indicator: TA100, Metabolic Activation: HAMSTER, LIVER, S-9, AROCLOR 1254 (10%), Method: PREINCUBATION
[6] abbreviates: Test System: AMES SALMONELLA TYPHIMURIUM, Strain/Indicator: TA100, Metabolic Activation: NONE, Method: PREINCUBATION
Where [7] appears, read: Test System: AMES SALMONELLA TYPHIMURIUM, Strain/Indicator: TA100, Metabolic Activation: NONE, Method: STANDARD PLATE.
Where [8] appears, read: Test System: AMES SALMONELLA TYPHIMURIUM, Strain/Indicator: TA100, Metabolic Activation: RAT, LIVER, S-9, AROCLOR 1254 (10%), Method: PREINCUBATION
The mark [9] stands for this setting: Test System: AMES SALMONELLA TYPHIMURIUM, Strain/Indicator: TA1535, Metabolic Activation: HAMSTER, LIVER, S-9, AROCLOR 1254 (10%), Method: PREINCUBATION
The mark [10] stands for this setting: Test System: AMES SALMONELLA TYPHIMURIUM, Strain/Indicator: TA1535, Metabolic Activation: NONE, Method: PREINCUBATION
Setting [11] is: Test System: AMES SALMONELLA TYPHIMURIUM, Strain/Indicator: TA1535, Metabolic Activation: NONE, Method: STANDARD PLATE.
Setting [12] is: Test System: AMES SALMONELLA TYPHIMURIUM, Strain/Indicator: TA1535, Metabolic Activation: RAT, LIVER, S-9, AROCLOR 1254 (10%), Method: PREINCUBATION

For `C/C=C1\CC2C=CC1C2` (stereo unspecified), the mutagenic call is “inactive; negative” under setting [1]; “inactive; negative” under setting [2]; “inactive; negative” under setting [3]; “inactive; negative” (Test System: AMES SALMONELLA TYPHIMURIUM, Strain/Indicator: TA98, Metabolic Activation: RAT LIVER S-9, AROCLOR 1254, Method: STANDARD PLATE); “inactive; negative” under setting [4]; “inactive; negative” under setting [5]. Further, the mutagenic call under setting [6] is “inactive; negative”; the mutagenic call under setting [7] was “inactive; negative”; the mutagenic call (Test System: AMES SALMONELLA TYPHIMURIUM, Strain/Indicator: TA100, Metabolic Activation: RAT LIVER S-9, AROCLOR 1254, Method: STANDARD PLATE) was “inactive; negative”; the mutagenic call under setting [8] is “inactive; negative”; the mutagenic call under setting [9] was “inactive; negative”; the mutagenic call under setting [10] is “inactive; negative”. The mutagenic call is “inactive; negative” under setting [11]; “inactive; negative” (Test System: AMES SALMONELLA TYPHIMURIUM, Strain/Indicator: TA1535, Metabolic Activation: RAT LIVER S-9, AROCLOR 1254, Method: STANDARD PLATE); “inactive; negative” under setting [12]; “inactive; negative” (Test System: AMES SALMONELLA TYPHIMURIUM, Strain/Indicator: TA1537, Metabolic Activation: HAMSTER, LIVER, S-9, AROCLOR 1254 (10%), Method: PREINCUBATION); “inactive; negative” (Test System: AMES SALMONELLA TYPHIMURIUM, Strain/Indicator: TA1537, Metabolic Activation: NONE, Method: PREINCUBATION); “inactive; negative” (Test System: AMES SALMONELLA TYPHIMURIUM, Strain/Indicator: TA1537, Metabolic Activation: NONE, Method: STANDARD PLATE). Further, the mutagenic call is “inactive; negative” (Test System: AMES SALMONELLA TYPHIMURIUM, Strain/Indicator: TA1537, Metabolic Activation: RAT LIVER S-9, AROCLOR 1254, Method: STANDARD PLATE); “inactive; negative” (Test System: AMES SALMONELLA TYPHIMURIUM, Strain/Indicator: TA1537, Metabolic Activation: RAT, LIVER, S-9, AROCLOR 1254 (10%), Method: PREINCUBATION); “inactive; negative” (Test System: AMES SALMONELLA TYPHIMURIUM, Strain/Indicator: TA1538, Metabolic Activation: NONE, Method: STANDARD PLATE); “inactive; negative” (Test System: AMES SALMONELLA TYPHIMURIUM, Strain/Indicator: TA1538, Metabolic Activation: RAT LIVER S-9, AROCLOR 1254, Method: STANDARD PLATE); “inactive; negative” (Test System: CHINESE HAMSTER OVARY, Strain/Indicator: CHO-K1-BH4 (HGPRT)/6-THIOGUANINE, Metabolic Activation: NONE); “inactive; negative” (Test System: CHINESE HAMSTER OVARY, Strain/Indicator: CHO-K1-BH4 (HGPRT)/6-THIOGUANINE, Metabolic Activation: RAT LIVER S-9, AROCLOR 1254).
As for `OC(CCl)CCl`, the mutagenic call (Test System: AMES SALMONELLA TYPHIMURIUM, Strain/Indicator: TA97, Metabolic Activation: HAMSTER, LIVER, S-9, AROCLOR 1254 (10%), Method: PREINCUBATION) is “active; positive”; the mutagenic call (Test System: AMES SALMONELLA TYPHIMURIUM, Strain/Indicator: TA97, Metabolic Activation: NONE, Method: PREINCUBATION) is “inactive; negative”; the mutagenic call (Test System: AMES SALMONELLA TYPHIMURIUM, Strain/Indicator: TA97, Metabolic Activation: RAT, LIVER, S-9, AROCLOR 1254 (10%), Method: PREINCUBATION) is “inactive; negative”; the mutagenic call under setting [1] was “active; positive”; the mutagenic call under setting [2] was “inactive; negative”; the mutagenic call under setting [4] is “inactive; negative”. Further, the mutagenic call was “active; positive” (Test System: AMES SALMONELLA TYPHIMURIUM, Strain/Indicator: TA100, Metabolic Activation: ADH AND NAD+ (5 OR 50 µL), Method: PREINCUBATION); “active; positive” under setting [5]; “active; positive” (Test System: AMES SALMONELLA TYPHIMURIUM, Strain/Indicator: TA100, Metabolic Activation: MOUSE, LIVER, S-9, PHENOBARBITAL, Method: STANDARD PLATE); “active; positive” under setting [6]; “active; positive” under setting [7]; “active; positive” under setting [8]. In addition, the mutagenic call is “active; positive” (Test System: AMES SALMONELLA TYPHIMURIUM, Strain/Indicator: TA100, Metabolic Activation: RAT, LIVER, S-9, AROCLOR 1254 (NAD+), Method: PREINCUBATION); “active; positive” (Test System: AMES SALMONELLA TYPHIMURIUM, Strain/Indicator: TA100, Metabolic Activation: RAT, LIVER, S-9, AROCLOR 1254 (NADP+), Method: PREINCUBATION); “active; positive” (Test System: AMES SALMONELLA TYPHIMURIUM, Strain/Indicator: TA100, Metabolic Activation: RAT, LIVER, S-9, PCB, Method: STANDARD PLATE); “active; positive” (Test System: AMES SALMONELLA TYPHIMURIUM, Strain/Indicator: TA100, Metabolic Activation: RAT, LIVER, S-9, PHENOBARBITAL, Method: STANDARD PLATE); “active; positive” (Test System: AMES SALMONELLA TYPHIMURIUM, Strain/Indicator: TA1535, Metabolic Activation: ADH AND NAD+ (50 µL), Method: PREINCUBATION); “active; positive” under setting [9]. Besides, the mutagenic call under setting [10] was “active; positive”; the mutagenic call under setting [11] was “active; positive”; the mutagenic call under setting [12] was “active; positive”; the mutagenic call (Test System: AMES SALMONELLA TYPHIMURIUM, Strain/Indicator: TA1535, Metabolic Activation: RAT, LIVER, S-9, AROCLOR 1254 (ADH AND NAD+), Method: PREINCUBATION) is “active; positive”; the mutagenic call (Test System: AMES SALMONELLA TYPHIMURIUM, Strain/Indicator: TA1535, Metabolic Activation: RAT, LIVER, S-9, AROCLOR 1254 (NADP+), Method: PREINCUBATION) was “active; positive”; the mutagenic call (Test System: AMES SALMONELLA TYPHIMURIUM, Strain/Indicator: TA1535, Metabolic Activation: RAT, LIVER, S-9, PCB, AROCLOR 1254, Method: STANDARD PLATE) is “active; positive”.
For `CN=C1C=CC(=C(c2ccc(N(C)C)cc2)c2ccc(N(C)C)cc2)C=C1`, the mutagenic call (Test System: AMES SALMONELLA TYPHIMURIUM, Strain/Indicator: TA97, Metabolic Activation: NONE, Method: STANDARD PLATE) was “inactive; negative”; the mutagenic call (Test System: AMES SALMONELLA TYPHIMURIUM, Strain/Indicator: TA97, Metabolic Activation: RAT, LIVER, S-9, AROCLOR 1254, Method: STANDARD PLATE) is “inactive; negative”; the mutagenic call under setting [3] was “inactive; negative”; the mutagenic call (Test System: AMES SALMONELLA TYPHIMURIUM, Strain/Indicator: TA98, Metabolic Activation: RAT, LIVER, S-9, AROCLOR 1254, Method: STANDARD PLATE) was “inactive; negative”; the mutagenic call under setting [7] is “inactive; negative”; the mutagenic call (Test System: AMES SALMONELLA TYPHIMURIUM, Strain/Indicator: TA100, Metabolic Activation: RAT, LIVER, S-9, AROCLOR 1254, Method: STANDARD PLATE) was “inactive; negative”. Moreover, the mutagenic call by setting is: (Test System: AMES SALMONELLA TYPHIMURIUM, Strain/Indicator: TA104, Metabolic Activation: NONE, Method: STANDARD PLATE) “inactive; negative”; (Test System: AMES SALMONELLA TYPHIMURIUM, Strain/Indicator: TA104, Metabolic Activation: RAT, LIVER, S-9, AROCLOR 1254, Method: STANDARD PLATE) “inactive; negative”.
